Data on 30 molecules can be found in patent US11970474B2, “Substituted benzodiazoles and use thereof in therapy” (THOMAS HELLEDAYS STIFTELSE FÖR MEDICINSK FORSKNING, priority 2018, dated 2024).

OGG1, sequence (O15527 whole entry): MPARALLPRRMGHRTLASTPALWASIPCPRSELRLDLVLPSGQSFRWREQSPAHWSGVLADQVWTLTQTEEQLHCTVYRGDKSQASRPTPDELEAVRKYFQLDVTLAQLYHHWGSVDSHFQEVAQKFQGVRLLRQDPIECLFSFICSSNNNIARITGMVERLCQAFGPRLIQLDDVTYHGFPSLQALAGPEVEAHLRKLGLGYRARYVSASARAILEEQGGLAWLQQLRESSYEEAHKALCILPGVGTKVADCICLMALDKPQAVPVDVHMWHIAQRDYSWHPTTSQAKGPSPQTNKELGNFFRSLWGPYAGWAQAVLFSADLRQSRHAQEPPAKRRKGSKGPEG

The experiment addresses OGG1 (Homo sapiens (Human), UniProt O15527). The experiment can be described thus: In vitro OGG1 activity assay. Format: biochemical. The settings on record: 800 pM OGG1 enzyme, 2 nM human APEX1, 10 nM 8-oxoA:C substrate. The procedure:
Method 1: In Vitro OGG1 Activity Assay OGG1 activity is assayed by measuring the increase in fluorescence from a duplex oligonucleotide containing an OGG1 substrate and a fluorophore in close proximity that are quenched by a quencher on the complementary strand. […] OGG1 activity releases the substrate base from DNA by cleaving the N-glycosidic bond between base and deoxyribose. The resulting apurinic site is cleaved by an excessive amount APEX1 activity which cause the duplex to melt, which in turn cause the fluorophore to become unquenched. Compounds to be tested are dissolved in DMSO and nano-dispensed directly into black 384-well plates, followed by transfer of enzyme and substrate solutions. […] The fluorescent signal is recorded in a plate reader equipped with suitable filters to register fluorescein fluorescence.
In turn, `Cc1ccc2c(c1)[nH]c(=O)n2C1CCN(C(=O)Nc2ccc(I)cc2)CC1` [Example 11, N-(4-iodophenyl)-4-(5-methyl-2-oxo-2,3-dihydro-1H-1,3-benzodiazol-1-yl)piperidine-1-carboxamide] came in with an IC50 of 1.78 µM. This lies in the single-digit micromolar range. The value for `COc1cc(NC(=O)[C@H]2CC[C@@H](n3c(=O)[nH]c4c(C(N)=O)cccc43)CC2)ccc1C` [Example 291, 2-Oxo-1-[cis-4-[(3-methoxy-4-methylphenyl)carbamoyl]cyclohexyl]-2,3-dihydro-1H-1,3-benzodiazole-4-carboxamide] was 0.00953 µM. With `COc1ccc(NC(=O)N2CCC(n3c(=O)[nH]c4c(N5Cc6cn[nH]c6C5)cccc43)CC2)cc1Cl` [Example 108, N-(3-chloro-4-methoxyphenyl)-4-(2-oxo-4-{1H,4H,5H,6H-pyrrolo[3,4-c]pyrazol-5-yl}-2,3-dihydro-1H-1,3-benzodiazol-1-yl)piperidine-1-carboxamide], half-maximal inhibition (IC50) required 2.53 µM. Compared with the last molecule, the IC50 is about 270-fold higher.

The molecule `COCCOc1cccc2c1[nH]c(=O)n2[C@H]1CC[C@@H](C(=O)Nc2ccc3cc[nH]c3c2)CC1` [Example 246, Cis-N-(1H-indol-6-yl)-4-[4-(2-methoxyethoxy)-2-oxo-2,3-dihydro-1H-1,3-benzodiazol-1-yl]cyclohexane-1-carboxamide] had an IC50 of 3.63 µM. Regarding `Cc1ccc(NC(=O)[C@H]2CC[C@@H](n3c(=O)[nH]c4c(Br)cccc43)CC2)cn1` [Example 190, Cis-4-(4-bromo-2-oxo-2,3-dihydro-1H-1,3-benzodiazol-1-yl)-N-(6-methylpyridin-3-yl)cyclohexane-1-carboxamide], it took 0.467 µM to reach half-maximal inhibition (IC50). This IC50 is about 7.8-fold lower than that of the molecule before.

In turn, `COc1ccc(NC(=O)N2CCC(n3c(=O)[nH]c4c(F)cccc43)CC2)cc1Cl` [Example 182, N-(3-Chloro-4-methoxyphenyl)-4-(4-fluoro-2-oxo-2,3-dihydro-1H-1,3-benzodiazol-1-yl)piperidine-1-carboxamide] registered an IC50 of 4.79 µM. As for `COc1cc(NC(=O)[C@H]2CC[C@@H](n3c(=O)[nH]c4c(Br)cccc43)CC2)cc(C(F)(F)F)c1` [Example 158, (Cis)-4-(4-bromo-2-oxo-2,3-dihydro-1H-1,3-benzodiazol-1-yl)-N-[3-methoxy-5-(trifluoromethyl)phenyl]cyclohexane-1-carboxamide], the IC50 stood at 6.05 µM. Consider `COc1cc(NC(=O)[C@H]2CC[C@@H](n3c(=O)[nH]c4c(C(=O)NC5CCNC5)cccc43)CC2)ccc1C` (stereo partly drawn) [Example 294, 2-Oxo-N-(pyrrolidin-3-yl)-1-[cis-4-[(3-methoxy-4-methylphenyl)carbamoyl]cyclohexyl]-2,3-dihydro-1H-1,3-benzodiazole-4-carboxamide], for which it took 0.00121 µM to reach half-maximal inhibition (IC50). Compared with the last molecule, the IC50 is about 5000-fold lower. `COC(=O)NC1CCN(c2cccc3c2[nH]c(=O)n3[C@H]2CC[C@@H](C(=O)Nc3ccc(C)c(OC)c3)CC2)C1` (stereo partly drawn) [Example 316, Methyl N-(1-{2-oxo-1-[cis-4-[(3-methoxy-4-methylphenyl)carbamoyl]cyclohexyl]-2,3-dihydro-1H-1,3-benzodiazol-4-yl}pyrrolidin-3-yl)carbamate]: half-maximal inhibition (IC50) was put at 0.038 µM. In turn, `CC1CN(C(=O)Nc2ccc(Cl)c(Cl)c2)CCC1n1c(=O)[nH]c2c(Br)cccc21` (stereo not drawn) [Example 113, 4-(4-Bromo-2-oxo-2,3-dihydro-1H-benzo[d]imidazol-1-yl)-N-(3,4-dichlorophenyl)-3-methylpiperidine-1-carboxamide] gave an IC50 of 3.2 µM. The value for `O=C(Nc1ccc(I)cc1)N1CCC(n2c(=O)[nH]c3c(CCO)cccc32)CC1` [Example 30, 4-[4-(2-Hydroxyethyl)-2-oxo-2,3-dihydro-1H-1,3-benzodiazol-1-yl]-N-(4-iodophenyl)piperidine-1-carboxamide] was 1.71 µM; that for `COc1ccc2c(c1)[nH]c(=O)n2C1CCN(C(=O)Nc2ccc(OC)c(Cl)c2)CC1` [Example 172, N-(3-Chloro-4-methoxyphenyl)-4-(5-methoxy-2-oxo-2,3-dihydro-1H-1,3-benzodiazol-1-yl)piperidine-1-carboxamide] was 7.79 µM; that for `O=C(Nc1ccc(Cl)cc1)N1CCC(n2c(=O)[nH]c3cc(Cl)ccc32)CC1` [Example 1, 4-(5-Chloro-2-oxo-2,3-dihydro-1H-1,3-benzodiazol-1-yl)-N-(4-chlorophenyl) piperidine-1-carboxamide] was 2.8 µM. The molecule `COc1ccc(NC(=O)N2CCC(n3c(=O)[nH]c4c(SC)cccc43)CC2)cc1Cl` [Example 176, N-(3-Chloro-4-methoxyphenyl)-4-[4-(methylsulfanyl)-2-oxo-2,3-dihydro-1H-1,3-benzodiazol-1-yl]piperidine-1-carboxamide] yielded an IC50 of 1.08 µM.

`COc1cc(NC(=O)[C@H]2CC[C@@H](n3c(=O)[nH]c4cc(CN)ccc43)CC2)ccc1C` [Example 256, Cis-4-[5-(aminomethyl)-2-oxo-2,3-dihydro-1H-1,3-benzodiazol-1-yl]-N-(3-methoxy-4-methylphenyl)cyclohexane-1-carboxamide] returned an IC50 of 2.69 µM. In turn, `COc1cc(NC(=O)[C@H]2CC[C@@H](n3c(=O)[nH]c4c(NC(=O)[C@@H]5CCN5)cccc43)CC2)ccc1C` [Example 287, (2S)—N-{2-Oxo-1-[cis-4-[(3-methoxy-4-methylphenyl)carbamoyl]cyclohexyl]-2,3-dihydro-1H-1,3-benzodiazol-4-yl}azetidine-2-carboxamide] returned an IC50 of 0.0271 µM. This IC50 lies about 99-fold lower than the previous one. Regarding `COc1ccc(NC(=O)[C@H]2CC[C@@H](n3c(=O)[nH]c4ncccc43)CC2)cc1` [Example 234, Cis-N-(4-methoxyphenyl)-4-{2-oxo-1H,2H,3H-imidazo[4,5-b]pyridin-1-yl}cyclohexane-1-carboxamide], half-maximal inhibition (IC50) was put at 0.572 µM.

With `COc1cc(NC(=O)[C@H]2CC[C@@H](n3c(=O)[nH]c4c(Nc5ncccn5)cccc43)CC2)ccc1C` [Example 279, Cis-N-(3-methoxy-4-methylphenyl)-4-{2-oxo-4-[(pyrimidin-2-yl)amino]-2,3-dihydro-1H-1,3-benzodiazol-1-yl}cyclohexane-1-carboxamide], 0.0745 µM corresponded to half-maximal inhibition (IC50). Under `COc1cc(NC(=O)N2CCC(n3c(=O)[nH]c4c(-c5cccnc5)cccc43)CC2)ccc1C` [Example 95, N-(3-methoxy-4-methylphenyl)-4-[2-oxo-4-(pyridin-3-yl)-2,3-dihydro-1H-1,3-benzodiazol-1-yl]piperidine-1-carboxamide] stands 1.81 µM. The value for `COc1cc(NC(=O)[C@H]2CC[C@@H](n3c(=O)[nH]c4c(Br)cccc43)CC2)ccc1C#N` [Example 159, (Cis)-4-(4-bromo-2-oxo-2,3-dihydro-1H-1,3-benzodiazol-1-yl)-N-(4-cyano-3-methoxyphenyl)cyclohexane-1-carboxamide] was 4.94 µM; that for `O=c1[nH]c2c(F)cccc2n1[C@H]1CC[C@@H](C(=O)Nc2ccc3cc[nH]c3c2)CC1` [Example 215, Cis-4-(4-fluoro-2-oxo-2,3-dihydro-1H-1,3-benzodiazol-1-yl)-N-(1H-indol-6-yl)cyclohexane-1-carboxamide] was 0.58 µM. The value for `O=C(Nc1ccc(I)cc1)N1CCC(n2c(=O)[nH]c3c(O)cccc32)CC1` [Example 6, 4-(4-Hydroxy-2-oxo-2,3-dihydro-1H-1,3-benzodiazol-1-yl)-N-(4-iodophenyl)piperidine-1-carboxamide] was 0.54 µM; that for `CN(C)c1ccc(NC(=O)[C@H]2CC[C@@H](n3c(=O)[nH]c4c(Br)cccc43)CC2)cc1` [Example 200, Cis-4-(4-bromo-2-oxo-2,3-dihydro-1H-1,3-benzodiazol-1-yl)-N-[4-(dimethylamino)phenyl]cyclohexane-1-carboxamide] was 0.631 µM; that for `COc1ccc(NC(=O)N2CCC(n3c(=O)[nH]c4c(N(C)CCN(C)C)cccc43)CC2)cc1Cl` [Example 106, N-(3-chloro-4-methoxyphenyl)-4-(4-{[2-(dimethylamino)ethyl](methyl)amino}-2-oxo-2,3-dihydro-1H-1,3-benzodiazol-1-yl)piperidine-1-carboxamide] was 1.75 µM. For `CN(C)c1cccc(NC(=O)[C@H]2CC[C@@H](n3c(=O)[nH]c4c(Br)cccc43)CC2)c1` [Example 198, Cis-4-(4-bromo-2-oxo-2,3-dihydro-1H-1,3-benzodiazol-1-yl)-N-[3-(dimethylamino)phenyl]cyclohexane-1-carboxamide], the IC50 was found to be 5.37 µM. Under `COc1cc(NC(=O)[C@H]2CC[C@@H](n3c(=O)[nH]c4c(NC(C)=O)cccc43)CC2)ccc1C` [Example 288, Cis-4-(4-acetamido-2-oxo-2,3-dihydro-1H-1,3-benzodiazol-1-yl)-N-(3-methoxy-4-methylphenyl)cyclohexane-1-carboxamide] stands 0.023 µM. As for `O=c1[nH]c2c(Br)cccc2n1[C@H]1CC[C@@H](C(=O)Nc2ccc(C(F)(F)F)cc2)CC1` [Example 133, (Cis)-4-(4-bromo-2-oxo-2,3-dihydro-1H-1,3-benzodiazol-1-yl)-N-[4-(trifluoromethyl)phenyl]cyclohexane-1-carboxamide], 0.865 µM corresponded to half-maximal inhibition (IC50).

`COc1cc(NC(=O)N2CCC(n3c(=O)[nH]c4c(-c5cncc(N)c5)cccc43)CC2)ccc1C` [Example 97, 4-[4-(5-Aminopyridin-3-yl)-2-oxo-2,3-dihydro-1H-1,3-benzodiazol-1-yl]-N-(3-methoxy-4-methylphenyl)piperidine-1-carboxamide] showed an IC50 of 1.73 µM. Against the preceding molecule, the IC50 is about 2-fold higher. For the molecule `O=c1[nH]c2c(Br)cccc2n1[C@H]1CC[C@@H](C(=O)Nc2cccc3cn[nH]c23)CC1` [Example 186, Cis-4-(4-bromo-2-oxo-2,3-dihydro-1H-1,3-benzodiazol-1-yl)-N-(1H-indazol-7-yl)cyclohexane-1-carboxamide], 2.03 µM corresponded to half-maximal inhibition (IC50).

`O=C(Nc1ccc(I)cc1)N1CCCC(n2c(=O)[nH]c3c(Br)cccc32)CC1` (stereo not drawn) [Example 34, 4-(4-Bromo-2-oxo-2,3-dihydro-1H-1,3-benzodiazol-1-yl)-N-(4-iodophenyl)azepane-1-carboxamide] showed an IC50 of 0.502 µM. This IC50 is about 4-fold lower than that of the molecule before.
